One assay has as its target T1, CLK1 (Homo sapiens, UniProt P49759).
T1 construct: the kinase domains of human CLK1 (residues: 148–484 (C terminus)); hexahistidine tag (TEV-cleavable) (cleaved yes); made in house; host or cells: E. coli BL21(DE3)
In words: Coupled-enzyme (PK/LDH) kinase inhibition assay. The class given is biochemical. Particulars: 0.1 mM ATP, 25°C; average from three independent experiments. Here is the method: The consensus peptide for CLK1 ([…]) and the DYRK1A substrate peptide ([…]-amide) were used as substrates at a concentration of 100 μM. Inhibitors, dissolved in DMSO, were added at the beginning of the preincubation period resulting in a final DMSO concentration of 2% in the assay. Kinetic analysis was performed by nonlinear regression fitting using GraphPad Prism 5 and least-squares fits to sigmoidal dose response curves with variable slope equation: Y=min+max−min/1+10^(logEC50−x)Hillslope, where max and min corresponds to maximal and minimal absorbance value.

For assay [1], the system named is flTF and asHTF mRNA in HMEC-1 cells. The assay can be described thus: TF isoform mRNA expression (RT-PCR).
Protocol: For inhibition experiments, HMEC-1 endothelial cells were switched to EC basal medium (without fetal calf serum) for 1 hr. […] Analysis of the TF isoform mRNA expression was done 1 hr post stimulation with TNF-α and assessment of the phosphorylation state of SR proteins by western blotting was performed 2 min post induction of the cells. Positive controls were stimulated only with TNF-α, and negative controls were untreated.
The subject of assay [2] is phosphorylated SR proteins in HMEC-1 cells. In words: SR protein phosphorylation, western blotting. Type of assay: cell-based, human. Here is the method: Western blot analysis of samples from cell lysates of inhibited, stimulated, and unstimulated HMEC-1 cells were performed as previously described ([Szotowski et al., 2005]). For detection of phosphorylated SR proteins, monoclonal antibody mAb1H4 (Invitrogen GmbH, Karlsruhe, Germany) was used.

Entries after “also recorded” stand apart in the source; their conditions may differ.

T1 sequence (P49759 148-484): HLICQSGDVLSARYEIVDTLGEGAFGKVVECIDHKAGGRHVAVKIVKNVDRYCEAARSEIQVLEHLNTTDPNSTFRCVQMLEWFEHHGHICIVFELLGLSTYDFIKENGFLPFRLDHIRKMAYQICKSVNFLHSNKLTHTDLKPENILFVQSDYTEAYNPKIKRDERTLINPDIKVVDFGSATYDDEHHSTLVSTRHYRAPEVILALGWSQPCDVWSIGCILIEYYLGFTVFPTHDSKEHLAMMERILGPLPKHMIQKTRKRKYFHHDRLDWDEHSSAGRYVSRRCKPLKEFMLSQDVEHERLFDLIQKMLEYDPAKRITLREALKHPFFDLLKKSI

As a reminder, the IC50 is the concentration at which inhibition is half-maximal. As to `Nc1nc(Nc2ccc(S(N)(=O)=O)cc2)nn1C(=S)Nc1c(F)cccc1F` [K00546], on CLK1, half-maximal inhibition (IC50) required 8.9 ± 3 nM.

Consider `CCN1/C(=C/C(C)=O)Sc2ccc(OC)cc21` [TG003], for which the “TNF-α-induced mRNA expression of flTF and asHTF” value in assay [1] (HMEC-1, 10 μM inhibitor, 10 ng/ml TNF-α, 1 hr post stimulation) is recorded as “only slightly reduced mRNA expression in TNF-α-induced cells”. For the same molecule, in assay [1] (resting HMEC-1, 10 μM inhibitor), the “Basal mRNA expression of flTF and asHTF” value was “reduced the basal expression of flTF and asHTF mRNA”. Further, in assay [2] (HMEC-1, 10 μM inhibitor pretreatment, 10 ng/ml TNF-α, 2 min post stimulation), the “TNF-α-induced phosphorylation of SR proteins” value was “reduction of the TNF-α-induced increase in phosphorylation of all analyzed SR proteins”. In addition, the “Phosphorylation state of SR proteins, nonstimulated cells” value in assay [2] (HMEC-1, 10 μM inhibitor, basal conditions) is recorded as “only reduced the phosphorylation of SRp20; also recorded: no effect on the phosphorylation state of other SR proteins”. In addition, the “Dose response of SRp75 and SRp55 phosphorylation” value in assay [2] (TNF-α-stimulated HMEC-1, increasing inhibitor concentration) is “little effect on SRp75 and SRp55 phosphorylation”.

Values taken from publication PMC3145970, “Specific CLK Inhibitors from a Novel Chemotype for Regulation of Alternative Splicing” (Chemistry & Biology, 2011).
